The source of these data is PubChem BioAssay (NCI).

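Test compounds were applied to cells in 96-well plates for 48 hours at 5 doses. Abbreviation: GI50, concentration required for 50% inhibition of growth. TGI marks complete inhibition of growth.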

Some test systems named below: MALME-3M melanoma; SK-MEL-2 melanoma; HCT-116 colon; TK-10 renal; SNB-75 CNS; SF-268 CNS; SK-MEL-5 melanoma; OVCAR-5 ovarian; MCF7 breast.
Holding throughout (assay): NCI tumour cell line growth inhibition, 48 h

Consider `O=C(CCC(=O)Nc1ccc(Cl)c(Cl)c1)Cc1nc2ccccc2o1`, for which the TGI with MALME-3M melanoma, in the assay with SK-MEL-2 melanoma, in the assay with HCT-116 colon, with TK-10 renal, with SNB-75 CNS and with SF-268 CNS was greater than 100 µM each time. Also, the TGI in the assay on SK-MEL-5 melanoma and in the assay with OVCAR-5 ovarian was greater than 100 µM throughout.
On to `CCC[C@H]1O[C@@H]2CC(=O)O[C@@H]2C2=C1C(=O)C=CC2=O`, for which the TGI with MALME-3M melanoma is 32.3 µM; in the assay on SK-MEL-2 melanoma, 38.6 µM; with HCT-116 colon, 32.1 µM; in the assay on TK-10 renal, greater than 57.3 µM; in the assay on SNB-75 CNS it was 36 µM; with SF-268 CNS, 18.7 µM. Moreover, the TGI in the assay with SK-MEL-5 melanoma and in the assay on OVCAR-5 ovarian was 36 µM in each case.
`O=C(C(=O)c1cc2ccccc2[nH]1)c1cc2ccccc2[nH]1`: the TGI in the assay on MALME-3M melanoma, in the assay with SK-MEL-2 melanoma, in the assay on HCT-116 colon, with TK-10 renal, in the assay on SNB-75 CNS and in the assay on SF-268 CNS was greater than 347 µM throughout. For the same compound, the TGI in the assay with SK-MEL-5 melanoma and in the assay on OVCAR-5 ovarian was greater than 347 µM throughout.
Take `CC1(C)OC2C(CCP(=O)(O)O)OC(c3nc(C(N)=O)cs3)C2O1` (stereo not given): the TGI with MALME-3M melanoma, in the assay on SK-MEL-2 melanoma, in the assay on HCT-116 colon, in the assay on TK-10 renal, in the assay on SNB-75 CNS and with SF-268 CNS was greater than 100 µM throughout. Besides, in the assay with OVCAR-5 ovarian, the TGI is greater than 100 µM.
`NC(=O)NNC(=O)CCn1[nH]c(=O)c(Cl)c(Cl)c1=O`: the TGI with MALME-3M melanoma, in the assay with SK-MEL-2 melanoma, with HCT-116 colon, in the assay on TK-10 renal, in the assay with SNB-75 CNS and in the assay with SF-268 CNS was greater than 100 µM throughout. Further, the TGI in the assay on SK-MEL-5 melanoma and in the assay on OVCAR-5 ovarian was greater than 100 µM throughout.
Regarding `Cc1c(C)n(CCCN2CCN(C)CC2)c2ccc(Oc3cccc(C(=O)N4CCN(CCc5ccc(F)cc5)CC4)c3)cc12`, the GI50 in the assay with MALME-3M melanoma is 1.78 µM; in the assay with MCF7 breast, 1.59 µM; with TK-10 renal, 1.62 µM; with SNB-75 CNS, 1.39 µM; in the assay with SF-268 CNS, 1.79 µM; in the assay on SK-MEL-5 melanoma, 1.71 µM. The GI50 with OVCAR-5 ovarian is 1.58 µM. Besides, the TGI with MALME-3M melanoma came out at 3.32 µM; in the assay with MCF7 breast, 3.22 µM; with TK-10 renal, 3.23 µM; with SNB-75 CNS, 2.85 µM; with SF-268 CNS, 3.78 µM; in the assay with SK-MEL-5 melanoma, 3.08 µM. The TGI in the assay with OVCAR-5 ovarian was found to be 3 µM.
As for `C=CSCCC(N)C(=O)O` (stereo not given), the TGI with MALME-3M melanoma, in the assay with HCT-116 colon, with TK-10 renal, in the assay with SNB-75 CNS, with SF-268 CNS and in the assay on SK-MEL-5 melanoma was greater than 100 µM in each case. The compound further registered a TGI in the assay on OVCAR-5 ovarian greater than 100 µM.
Regarding `CCOC(OC(C)=O)[C@@H]1C=C[C@H](C)N(c2ccc([N+](=O)[O-])cc2)O1` (stereo not given in full), the TGI with MALME-3M melanoma is 20.1 µM; in the assay with SK-MEL-2 melanoma, 13.5 µM; in the assay on HCT-116 colon it was 2.61 µM; in the assay on TK-10 renal, 14 µM; in the assay on SNB-75 CNS, 25.9 µM; in the assay on SF-268 CNS it was 15.6 µM. Further, the TGI in the assay with SK-MEL-5 melanoma was determined as 13.4 µM; in the assay on OVCAR-5 ovarian it was 10.4 µM.
Turning to `COC1CCC(OS(C)(=O)=O)C(CO)O1` (stereo not given), the TGI in the assay with MALME-3M melanoma, with SK-MEL-2 melanoma, in the assay with HCT-116 colon, with TK-10 renal, in the assay on SNB-75 CNS and with OVCAR-5 ovarian was greater than 100 µM throughout.
Regarding `CCN(CC)CCCNc1nccc2c(C)c3c(cc12)c1cnccc1n3C`, the TGI amounted to 0.378 µM with HCT-116 colon; 3.26 µM in the assay with TK-10 renal; 1.74 µM in the assay with SNB-75 CNS; 1.69 µM in the assay with SF-268 CNS; 1.82 µM in the assay with SK-MEL-5 melanoma.
With `COc1ccc(Cc2c3cc(O)c(=O)cc-3ccn2C)cc1`, the TGI with MALME-3M melanoma is greater than 88.1 µM; in the assay with SK-MEL-2 melanoma, greater than 100 µM; with HCT-116 colon it was greater than 100 µM; with TK-10 renal it was greater than 100 µM; with SNB-75 CNS, greater than 100 µM; in the assay with SF-268 CNS it was 98.2 µM. The TGI with SK-MEL-5 melanoma was greater than 76.1 µM; in the assay with OVCAR-5 ovarian, greater than 100 µM.
For `NNC(=O)C(=O)N/N=C(\CCCC(=O)Nc1ccc(Cl)cc1)CC(=O)c1ccc(F)cc1`, the TGI in the assay on MALME-3M melanoma, with SK-MEL-2 melanoma, with HCT-116 colon, in the assay with TK-10 renal, in the assay on SNB-75 CNS and in the assay with SF-268 CNS was greater than 100 µM each time. Moreover, the TGI in the assay with SK-MEL-5 melanoma and in the assay with OVCAR-5 ovarian was greater than 100 µM in each case.
Regarding `C=C(CCCCC)CN1CCCC1C(C)=O` (stereo not given), the TGI was greater than 100 µM with MALME-3M melanoma; greater than 74.7 µM in the assay on SK-MEL-2 melanoma; greater than 80.9 µM in the assay with HCT-116 colon; greater than 100 µM with TK-10 renal; 78.7 µM in the assay on SNB-75 CNS; greater than 100 µM in the assay with SF-268 CNS. The values for the TGI with SK-MEL-5 melanoma and in the assay on OVCAR-5 ovarian were 33.2 µM and greater than 96.1 µM, respectively.
In the case of `C=CCNC(=O)NCCCCC(NC(C)=O)C(=O)NCc1ccccc1` (stereo not given), the TGI with MALME-3M melanoma, with SK-MEL-2 melanoma, in the assay with TK-10 renal, in the assay on SNB-75 CNS, in the assay with SF-268 CNS and in the assay with SK-MEL-5 melanoma was greater than 100 µM each time. Besides, the TGI with OVCAR-5 ovarian was greater than 100 µM.
On to `CC(C)(C)C1=CC(=C(P(=O)(O)O)P(=O)(O)O)C=C(C(C)(C)C)C1=O`, for which the TGI with MALME-3M melanoma, in the assay with SK-MEL-2 melanoma, with HCT-116 colon, with TK-10 renal, in the assay with SNB-75 CNS and in the assay on SF-268 CNS was greater than 50 µM each time. Besides, the TGI with SK-MEL-5 melanoma and in the assay with OVCAR-5 ovarian was greater than 50 µM in each case.
On to `COC(=O)c1cc2c(=O)n(C)c3ccccc3n2c1C(=O)OC`, for which the TGI in the assay with MALME-3M melanoma was greater than 100 µM; in the assay with SK-MEL-2 melanoma, greater than 100 µM; in the assay on TK-10 renal it was 77.4 µM; in the assay on SNB-75 CNS it was 37.3 µM; with SF-268 CNS, greater than 100 µM; in the assay with SK-MEL-5 melanoma, greater than 100 µM. In the assay with OVCAR-5 ovarian, this compound came in with a TGI greater than 100 µM.
